System: eye
Experiment: Primary eye irritation, protocol FHSLA 16 CFR 1500.42
Format: in vivo
Conditions: products tested at 25% actives
Experimental: Eye irritation is a major concern in the formulation of personal care products, particularly when working with quats. Primary eye irritation was tested using the protocol outlined in FHSLA 16 CFR 1500.42. The products were tested at 25% actives.

| Structure (SMILES) | Description | Score |
| --- | --- | --- |
| CCCCCCCCCCCCCCCCCC[N+](C)(C)Cc1ccccc1.[Cl-] [Stearalkonium Chloride] | Severely Irritating | 116.5 |
| CCCCCCCCCCCCCCCCCC[N+](C)(C)C.[Cl-] [Stearyl trimethyl ammonium chloride] | Severely Irritating | 106.0 |
